# Laboratory results as given in US20250197382A1, “KIF18A INHIBITOR” (WIGEN BIOMEDICINE TECHNOLOGY (SHANGHAI) CO., LTD., priority 2022, published 2025).
# Biological target: Recombinant human KIF18A (1-467His-tagged) protein (Homo sapiens (Human), UniProt Q8NI77)
# Test: KIF18A enzyme assay (microtubule-stimulated ATPase activity, ADP-Glo)
# Assay type: biochemical
# Conditions: 30 nM KIF18A, ATP 75 μM, read-out: inhibitory activity against KIF18A IC50
# Procedure, shortened: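 Baculovirus-expressed human KIF18A (1-467, His-tagged; 30 nM) preincubated 15 min at room temperature with compound (22-point 2-fold series) in pH 7.5 Tris buffer containing 30 μg/mL pig microtubules and 1 μM paclitaxel.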
# Chain of Recombinant human KIF18A (1-467His-tagged) protein (Q8NI77 1-467): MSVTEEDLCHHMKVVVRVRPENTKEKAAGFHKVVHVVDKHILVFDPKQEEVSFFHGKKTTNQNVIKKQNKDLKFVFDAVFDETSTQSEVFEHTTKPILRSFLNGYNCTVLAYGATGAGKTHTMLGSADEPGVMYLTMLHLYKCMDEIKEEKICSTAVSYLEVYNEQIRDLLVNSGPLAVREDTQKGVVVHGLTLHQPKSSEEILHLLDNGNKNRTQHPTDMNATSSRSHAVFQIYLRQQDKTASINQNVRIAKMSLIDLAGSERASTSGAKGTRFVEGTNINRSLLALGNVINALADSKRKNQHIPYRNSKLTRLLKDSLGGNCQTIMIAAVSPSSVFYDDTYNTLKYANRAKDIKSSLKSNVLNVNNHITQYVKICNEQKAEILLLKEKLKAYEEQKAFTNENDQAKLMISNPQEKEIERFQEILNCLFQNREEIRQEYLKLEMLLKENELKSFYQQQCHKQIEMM
# Chain of Recombinant human KIF18A (1-467His-tagged) protein (P02550 whole entry partner): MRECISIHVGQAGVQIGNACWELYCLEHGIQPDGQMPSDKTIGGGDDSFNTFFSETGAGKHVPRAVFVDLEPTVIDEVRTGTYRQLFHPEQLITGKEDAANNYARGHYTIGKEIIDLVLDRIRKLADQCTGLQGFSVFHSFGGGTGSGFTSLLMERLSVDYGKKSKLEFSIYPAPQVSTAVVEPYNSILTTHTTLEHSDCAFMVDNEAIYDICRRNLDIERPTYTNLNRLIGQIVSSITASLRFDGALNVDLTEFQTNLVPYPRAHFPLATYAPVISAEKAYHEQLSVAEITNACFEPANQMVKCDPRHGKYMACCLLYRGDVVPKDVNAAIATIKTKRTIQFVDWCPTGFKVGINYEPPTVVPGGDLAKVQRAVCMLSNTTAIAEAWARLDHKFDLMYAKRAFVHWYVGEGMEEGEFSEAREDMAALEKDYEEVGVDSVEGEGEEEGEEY
# Chain of Recombinant human KIF18A (1-467His-tagged) protein (P02554 whole entry partner): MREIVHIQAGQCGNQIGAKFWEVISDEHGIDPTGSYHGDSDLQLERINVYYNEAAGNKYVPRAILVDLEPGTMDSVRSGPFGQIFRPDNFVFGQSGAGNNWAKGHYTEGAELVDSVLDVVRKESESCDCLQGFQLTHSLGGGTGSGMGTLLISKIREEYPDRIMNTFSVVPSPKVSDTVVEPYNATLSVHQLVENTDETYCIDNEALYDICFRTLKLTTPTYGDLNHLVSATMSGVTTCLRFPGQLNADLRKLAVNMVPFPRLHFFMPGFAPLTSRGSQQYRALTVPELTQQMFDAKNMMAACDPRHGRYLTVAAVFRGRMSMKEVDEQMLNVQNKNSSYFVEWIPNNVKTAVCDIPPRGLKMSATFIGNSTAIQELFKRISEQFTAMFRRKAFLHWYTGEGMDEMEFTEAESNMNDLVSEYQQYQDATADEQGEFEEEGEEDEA
row,Structure (SMILES),IC50
1,O=C(Nc1cc2c(c(N3CCC(F)CC3)c1)OCC2)c1ccc(S(=O)(=O)NCCO)cc1N1CCC2(CC1)CC2 [Compound 25],≤ 100 nM
2,O=C(Nc1ccc(S(=O)(=O)NCCO)cc1N1CCC2(CC1)CC2)c1cc2c(c(N3CCC4(CC4)C3)n1)OCC2 [Compound 118],≤ 100 nM
3,C[C@@H]1CN(c2nc(NC(=O)c3ccc(NS(=O)(=O)[C@H](C)CO)cc3N3CCC4(CC3)CC4)cc3ccn(C)c23)CCO1 [Compound 464],≤ 100 nM
4,Cn1ccc2cc(C(=O)Nc3ccc(NS(=O)(=O)CCO)cc3N3CCC4(CC3)CC4)nc(OCCC(F)(F)F)c21 [Compound 485],≤ 100 nM
5,Cn1ccc2cc(NC(=O)c3ccc(S(=O)(=O)NCCO)cc3N3CCC4(CC3)CC4)nc(N3CCC(C)(F)C3)c21 (centres unmarked) [Compound 472],≤ 100 nM
6,C[C@@H]1CN(c2nc(NC(=O)c3ccc(NS(=O)(=O)[C@H](C)CO)cc3N3CCC4(CC3)CC4)cc3c2OCC3)CCO1 [Compound 80],≤ 100 nM
7,C[C@@H]1CN(c2nc(NC(=O)c3ccc(NS(=O)(=O)[C@@H](C)CO)cc3N3CCC4(CC3)CC4)cc3c2OCC3)CCO1 [Compound 79],≤ 100 nM
8,CN1CCc2cc(NC(=O)c3ccc(NS(=O)(=O)CCO)cc3N3CCC4(CC3)CC4)nc(N3CC(F)(F)C3)c21 [Compound 324],≤ 100 nM
9,Cn1ccc2cc(NC(=O)c3ccc(NS(=O)(=O)CCO)cc3N3CCC4(CC3)CC4)cc(OC3CCC3)c21 [Compound 391],≤ 100 nM
10,Cn1ccc2cc(C(=O)Nc3ccc(S(=O)(=O)NCCO)cc3N3CCC4(CC3)CC4)cc(N3CCOCC3)c21 [Compound 444],≤ 100 nM
11,C[C@@H]1CN(c2nc(C(=O)Nc3ccc(NS(=O)(=O)[C@@H](C)CO)cc3N3CCC4(CC3)CC4)cc3c2OCC3)CCO1 [Compound 111],≤ 100 nM
12,O=C(Nc1cc2c(c(N3CCOCC3)c1)OCC2)c1ccc(S(=O)(=O)NCCO)cc1N1CCC2(CC1)CC2 [Compound 28],≤ 100 nM
13,Cn1ccc2cc(NC(=O)c3ccc(NS(=O)(=O)CCO)cc3N3CCC4(CC3)CC4)cc(N3CCC(C)(F)C3)c21 (centres unmarked) [Compound 392],≤ 100 nM
14,C[C@@H](CO)S(=O)(=O)Nc1ccc(C(=O)Nc2cc3ccn(C)c3c(N3CCC(F)(F)CC3)n2)c(N2CCC3(CC2)CC3)c1 [Compound 461],≤ 100 nM
15,C[C@H]1CN(c2cc(NC(=O)c3ccc(S(=O)(=O)NCCO)cc3N3CCC4(CC3)CC4)cc3ccoc23)CCO1 [Compound 147],≤ 100 nM
16,CC(C)(CO)Nc1cc(C(=O)Nc2ccc(NS(=O)(=O)CCO)cc2N2CCC3(CC2)CC3)cc2c1OCC2 [Compound 43],≤ 100 nM
17,C[C@H](CO)NS(=O)(=O)c1ccc(NC(=O)c2cc3c(c(N4CCO[C@H](C)C4)c2)N(C)CC3)c(N2CCC3(CC2)CC3)c1 [Compound 320],≤ 100 nM
18,Cn1ccc2cc(NC(=O)c3ccc(S(=O)(=O)NCCO)cc3N3CCC4(CC3)CC4)nc(OCCC(F)(F)F)c21 [Compound 469],≤ 100 nM
19,C[C@@H]1CN(c2nc(C(=O)Nc3ccc(NS(=O)(=O)[C@H](C)CO)cc3N3CCC4(CC3)CC4)cc3c2N(C)CC3)CCO1 [Compound 368],≤ 100 nM
20,O=C(Nc1cn2ccnc2c(N2CCC(F)(F)CC2)n1)c1ccc(NS(=O)(=O)CCO)cc1N1CCC2(CC1)CC2 [Compound 536],≤ 100 nM
21,C[C@@H]1CN(c2nc(C(=O)Nc3ccc(NS(=O)(=O)[C@@H](C)CO)cc3N3CCC4(CC3)CC4)cc3c2N(C)CC3)CCO1 [Compound 367],≤ 100 nM

row,Structure (SMILES),IC50
1,C[C@H](CO)S(=O)(=O)Nc1ccc(NC(=O)c2cc3c(c(N4CCC(F)(F)CC4)n2)N(C)CC3)c(N2CCC3(CC2)CC3)c1 [Compound 366],≤ 100 nM
2,C[C@H]1CN(c2nc(NC(=O)c3ccc(S(=O)(=O)NCCO)cc3N3CCC4(CC3)CC4)cc3ccn(C)c23)CCO1 [Compound 467],≤ 100 nM
3,C[C@H]1CN(c2cc(NC(=O)c3ccc(S(=O)(=O)NCCO)cc3N3CCC4(CC3)CC4)cc3ccn(C)c23)CCO1 [Compound 403],≤ 100 nM
4,C[C@@H](CO)S(=O)(=O)Nc1ccc(C(=O)Nc2cc3c(c(N4CCC(F)(F)CC4)n2)OCC3)c(N2CCC3(CC2)CC3)c1 [Compound 77],≤ 100 nM
5,C[C@H](CO)NS(=O)(=O)c1ccc(NC(=O)c2cc(N3CCO[C@H](C)C3)c3occc3c2)c(N2CCC3(CC2)CC3)c1 [Compound 192],≤ 100 nM
6,C[C@@H](CO)NS(=O)(=O)c1ccc(C(=O)Nc2cc(N3CCC(F)(F)CC3)c3occc3c2)c(N2CCC3(CC2)CC3)c1 [Compound 157],≤ 100 nM
7,C[C@@H]1CN(c2cc(NC(=O)c3ccc(NS(=O)(=O)CCO)cc3N3CCC4(CC3)CC4)cc3c2N(C)CC3)CCO1 [Compound 258],≤ 100 nM
8,C[C@@H](CO)NS(=O)(=O)c1ccc(C(=O)Nc2cc3ccoc3c(N3CCC(F)(F)CC3)n2)c(N2CCC3(CC2)CC3)c1 [Compound 221],≤ 100 nM
9,O=C(Nc1cc2c(c(N3CCC(F)(F)CC3)c1)CCC2)c1ccc(NS(=O)(=O)CCO)cc1N1CCC2(CC1)CC2 [Compound 532],≤ 100 nM
10,O=C(Nc1cc2ccoc2c(N2CCC(F)(F)CC2)n1)c1ccc(NS(=O)(=O)CCO)cc1N1CCC2(CC1)CC2 [Compound 193],≤ 100 nM
11,O=C(Nc1ccc(S(=O)(=O)NCCO)cc1N1CCC2(CC1)CC2)c1cc2ccoc2c(N2CC3CC3C2)n1 (centres unmarked) [Compound 250],≤ 100 nM
12,C[C@@H]1CN(c2cc(C(=O)Nc3ccc(S(=O)(=O)N[C@@H](C)CO)cc3N3CCC4(CC3)CC4)cc3ccn(C)c23)CCO1 [Compound 447],≤ 100 nM
13,CC1(F)CCN(c2nc(C(=O)Nc3ccc(NS(=O)(=O)CCO)cc3N3CCC4(CC3)CC4)cc3ccoc23)C1 (centres unmarked) [Compound 232],≤ 100 nM
14,C[C@@H]1CN(c2nc(NC(=O)c3ccc(NS(=O)(=O)[C@@H](C)CO)cc3N3CCC4(CC3)CC4)cc3ccoc23)CCO1 [Compound 207],≤ 100 nM
15,O=C(Nc1ccc(S(=O)(=O)NCCO)cc1N1CCC2(CC1)CC2)c1cc2c(c(N3CCOCC3)n1)OCC2 [Compound 124],≤ 100 nM
16,O=C(Nc1ccc(NS(=O)(=O)CCO)cc1N1CCC2(CC1)CC2)c1cc(N2CCC3(CC3)C2)c2occc2c1 [Compound 166],≤ 100 nM
17,C[C@@H]1CN(c2nc(C(=O)Nc3ccc(NS(=O)(=O)[C@H](C)CO)cc3N3CCC4(CC3)CC4)cc3ccoc23)CCO1 [Compound 240],≤ 100 nM
18,C[C@H]1CN(c2cc(C(=O)Nc3ccc(S(=O)(=O)NCCO)cc3N3CCC4(CC3)CC4)cc3ccoc23)CCO1 [Compound 179],≤ 100 nM
19,Cn1ccc2cc(NC(=O)c3ccc(NS(=O)(=O)CCO)cc3N3CCC4(CC3)CC4)nc(N3CC4CC4C3)c21 (centres unmarked) [Compound 458],≤ 100 nM
20,C[C@H](CO)NS(=O)(=O)c1ccc(C(=O)Nc2cc3c(c(N4CCO[C@H](C)C4)n2)OCC3)c(N2CCC3(CC2)CC3)c1 [Compound 96],≤ 100 nM
21,O=C(Nc1ccc(S(=O)(=O)NCCO)cc1N1CCC2(CC1)CC2)c1cc(OC2CCC2)c2occc2c1 [Compound 183],≤ 100 nM

row,Structure (SMILES),IC50
1,C[C@H]1CN(c2cc(C(=O)Nc3ccc(NS(=O)(=O)CCO)cc3N3CCC4(CC3)CC4)cc3c2OCC3)CCO1 [Compound 35],≤ 100 nM
2,C[C@H](CO)S(=O)(=O)Nc1ccc(NC(=O)c2cc(N3CCC(F)(F)CC3)c3c(ccn3C)c2)c(N2CCC3(CC2)CC3)c1 [Compound 430],≤ 100 nM
3,CN1CCc2cc(C(=O)Nc3ccc(S(=O)(=O)NCCO)cc3N3CCC4(CC3)CC4)cc(N3CC(F)(F)C3)c21 [Compound 308],≤ 100 nM
4,C[C@H](CO)NS(=O)(=O)c1ccc(C(=O)Nc2cc3c(c(N4CCO[C@H](C)C4)n2)N(C)CC3)c(N2CCC3(CC2)CC3)c1 [Compound 352],≤ 100 nM
5,O=C(Nc1ccc(NS(=O)(=O)CCO)cc1N1CCC2(CC1)CC2)c1cc2ccoc2c(OC2CCC2)n1 [Compound 231],≤ 100 nM
6,C[C@H](CO)NS(=O)(=O)c1ccc(NC(=O)c2cc3c(c(N4CCC(F)(F)CC4)n2)N(C)CC3)c(N2CCC3(CC2)CC3)c1 [Compound 382],≤ 100 nM
7,O=C(Nc1ccc(NS(=O)(=O)CCO)cc1N1CCC2(CC1)CC2)c1cc2c(c(N3CC(F)(F)C3)n1)OCC2 [Compound 100],≤ 100 nM
8,C[C@@H]1CN(c2nc(NC(=O)c3ccc(S(=O)(=O)NCCO)cc3N3CCC4(CC3)CC4)cc3ccoc23)CCO1 [Compound 210],≤ 100 nM
9,CN1CCc2cc(C(=O)Nc3ccc(NS(=O)(=O)CCO)cc3N3CCC4(CC3)CC4)nc(N3CC4CC4C3)c21 (centres unmarked) [Compound 362],≤ 100 nM
10,Cn1ccc2cc(NC(=O)c3ccc(NS(=O)(=O)CCO)cc3N3CCC4(CC3)CC4)nc(N3CC(F)(F)C3)c21 [Compound 452],≤ 100 nM
11,CN1CCc2cc(C(=O)Nc3ccc(NS(=O)(=O)CCO)cc3N3CCC4(CC3)CC4)nc(OC3CCC3)c21 [Compound 359],≤ 100 nM
12,O=C(Nc1cc2c(c(N3CC4CC4C3)c1)OCC2)c1ccc(S(=O)(=O)NCCO)cc1N1CCC2(CC1)CC2 (centres unmarked) [Compound 26],≤ 100 nM
13,Cn1ccc2cc(C(=O)Nc3ccc(S(=O)(=O)NCCO)cc3N3CCC4(CC3)CC4)cc(NC(C)(C)CO)c21 [Compound 443],≤ 100 nM
14,C[C@H](CO)S(=O)(=O)Nc1ccc(NC(=O)c2cc(N3CCC(F)(F)CC3)c3occc3c2)c(N2CCC3(CC2)CC3)c1 [Compound 174],≤ 100 nM
15,CN1CCc2cc(C(=O)Nc3ccc(NS(=O)(=O)CCO)cc3N3CCC4(CC3)CC4)cc(N3CCOCC3)c21 [Compound 300],≤ 100 nM
16,C[C@H](CO)S(=O)(=O)Nc1ccc(C(=O)Nc2cc3c(c(N4CCC(F)(F)CC4)c2)OCC3)c(N2CCC3(CC2)CC3)c1 [Compound 14],≤ 100 nM
17,C[C@H]1CN(c2nc(NC(=O)c3ccc(NS(=O)(=O)CCO)cc3N3CCC4(CC3)CC4)cc3ccoc23)CCO1 [Compound 195],≤ 100 nM
18,CN1CCc2cc(C(=O)Nc3ccc(S(=O)(=O)NCCO)cc3N3CCC4(CC3)CC4)nc(N3CCC(C)(F)C3)c21 (centres unmarked) [Compound 376],≤ 100 nM
19,Cn1ccc2cc(NC(=O)c3ccc(S(=O)(=O)NCCO)cc3N3CCC4(CC3)CC4)nc(N3CCOCC3)c21 [Compound 476],≤ 100 nM
20,C[C@H]1CN(c2nc(C(=O)Nc3ccc(NS(=O)(=O)CCO)cc3N3CCC4(CC3)CC4)cc3ccoc23)CCO1 [Compound 227],≤ 100 nM
